{
  "source": "patent US9006216B2",
  "about": "“Biocidal aldehyde composition for oil and gas extraction” (priority 2009, dated 2015)",
  "key": {"Pseudomonas aeruginosa [1]": {"system": "Pseudomonas aeruginosa", "test": "Chlorine dioxide and TTPC versus Pseudomonas aeruginosa, log reduction", "format": "cell-based", "settings": "ClO2 of 10 ppm alone; 10^5 ml; 30 min exposure", "description": "A test with chlorine dioxide (ClO2) and TTPC versus Pseudomonas aeruginosa was performed at 10^5 ml with ClO2 of 10 ppm. This alone gave a 1 log reduction in 30 min exposure. TTPC alone at 50 ppm gave a 2 log reduction. The combination of ClO2 and TTPC of 5 ppm and 10 ppm gave a 5 log reduction in 30 min."}, "[2]": {"settings": "20-22 degrees C; high level disinfectant; cited from earlier work"}, "Pseudomonas aeruginosa [3]": {"system": "Pseudomonas aeruginosa", "settings": "cited from earlier work"}, "mycobacterial strains": {"system": "mycobacterial strains", "settings": "cited from earlier work"}, "[4]": {"system": "acid-producing bacteria (APB)", "test": "Effective kill time of acid-producing bacteria", "format": "cell-based", "description": "When TTPC was added to the core Glutaraldehyde or OPA as a substitute for dual chain quaternary ammonium the effective kill time was twice as fast (2×) based upon log reduction. Similarly, the TTPC reduced the effective kill time of acid-producing bacteria (APB) by almost 50%. Although the kill speed of TTPC alone was 20% slower than the glut/quat formula of copending U.S. patent application Ser. No. 12/584,650, when TTPC is combined with glutaraldehyde as a substitute for dual chain quaternary ammonium the kill time increased to four times 4× faster, evidencing the synergism of the present combination."}, "aerobic organisms": {"system": "aerobic organisms", "test": "Killing of aerobic organisms in oil frac water (5 log reduction)", "format": "cell-based", "settings": "based upon a 5 log reduction in oil frac water", "description": "(§1) As such there is actually a slight increase in planktonic microbes which are more susceptible to biocide/TTPC effects. Individual biocides affect the physiology of the cell quite differently. […] This is an example of enhanced quantum complementarity. The importance of the environmental parameter cannot be underestimated based upon the foregoing results. TTPC has a similar margin of exposure as the quats for oil field imputability with friction reducers for killing of aerobic organisms. […] The minimum inhibitory concentration (MIC) for the TTPC usage is 50-500 ppm. Therefore it is safe regarding corrosiveness, an important facet in well treatment. […] The faster cidal action is due basically to the chemistry difference between amine quats and phosphonium salts. The ammonium quats have longer alkyl chains. Instead of amine the difference is a phosphonium ion but also importantly is the alkyl chain length. It has been determined that there is an optimal length for anti-bacterial effectiveness. It was dependent upon chain length and attachment moieties. […] Usually the longer chain was better but not in these cases. […] TTPC did. There are great differences between Gram + and Gram − bacteria in their cell walls. […] The Gram − wall is complicated. It has in addition to the wall of G+ an outer membrane of lipopolysaccharides and phospholipids that protect the cell."}, "[5]": {"system": "sulfur reducing bacteria (SRB)", "test": "Efficacy in oil/gas fields on sulfur reducing bacteria", "format": "cell-based", "description": "as §1"}, "biofilm": {"system": "biofilm", "test": "Biofilm removability", "settings": "secondary oil and gas recovery", "description": "as §1"}},
  "data": [
    {"smiles": "[O][Cl+][O-]", "note": "[ClO2, chlorine dioxide]", "values": [
      {"measurement": "log reduction", "setting": "Pseudomonas aeruginosa [1]", "result": 1, "unit": "log"}
    ]},
    {"smiles": "O=Cc1ccccc1C=O", "note": "[OPA, ortho-phthalaldehyde]", "values": [
      {"measurement": "disinfection time", "setting": "[2]", "result": "twelve"},
      {"measurement": "bactericidal activity against Pseudomonas aeruginosa", "setting": "Pseudomonas aeruginosa [3]", "result": "good"},
      {"measurement": "bactericidal activity against mycobacterial strains", "setting": "mycobacterial strains", "result": "limited activity"}
    ]},
    {"smiles": "CCCCCCCCCCCCCC[P+](CCCC)(CCCC)CCCC.[Cl-]", "note": "[TTPC, tributyl tetradecyl phosphonium chloride]", "values": [
      {"measurement": "reduction of effective kill time of acid-producing bacteria (APB)", "setting": "[4]", "result": "~50", "unit": "%"},
      {"measurement": "effectiveness relative to the original glut/quat formula", "setting": "aerobic organisms", "result": "twice as effective"},
      {"measurement": "efficacy on sulfur reducing bacteria (SRB)", "setting": "[5]", "result": "almost equally effective"},
      {"measurement": "biofilm removability compared to quaternary ammonium", "setting": "biofilm", "result": "superior biofilm removability"}
    ]}
  ]
}
